This is an account of results in patent US20020055528A1, “Artemisinin analogs having antimalarial, antiproliferative, and antitumor activities and chemoselective methods of making the same” (priority 1999, published 2002).

Each structure is given as a SMILES string. pIC50: −log10 of the molar value.

Data set [1] has as its system P. vivax and P. falciparum. As to conditions: 2099 cases of malaria, different dosage forms; cited from earlier work.
The test system of data set [2] is 60 cell line panel. As to conditions: 60 lines, nine subpanels; later anticancer studies; cited from earlier work.
Data set [3] deals with chloroquine-sensitive P. falciparum (NF54). Put plainly: Antimalarial screening, [3H]hypoxanthine incorporation. Type of data set: cell-based, Plasmodium falciparum. As to conditions: Plasmodium falciparum, NF54, chloroquine-sensitive P. falciparum (NF54); read-out: IC50. As for the experimental part:
Activity was determined by measuring the incorporation of [^3H]hypoxanthine, by the methods of Desjardins and Milhouse, with the following modifications, see […].; Haynes, […]. Antimicrob. Agents Chemother., 16: 710 (1979); Milhous, W. K.; Weatherly, […].; Antimicrob. Agents Chemother., 27: 525 (1985). […] Calbiochem #391338), 27 mM NaHCO3 (Gibco BRL # 11810-025), and 10% heat-inactivated human type O+serum (Interstate Blood Bank, Inc.), under 3% O2, 4% CO2, and 93% N2-Parasitemia was maintained at 0.05-3% and doubling time at approximately 15 hours by twice weekly change of medium and replenishment with fresh erythrocytes. […] Sigma-Aldrich #27,043-1). DMSO solutions were diluted 500-fold in medium, serially diluted in 0.2% DMSO in medium (to maintain constant solvent concentration), then 100 μL aliquots were pipetted into microtiter plate wells (Costar3595). […] Cells were harvested (Brandel MB-48R) onto GF-C glass filters (Brandel). The filters were washed five times with 3 mL water per sample spot, dried under a heat lamp, and counted (Beckman Model LS-6500) in scintillation cocktail (ICN Cytoscint). Decays per minute (dpm) values were downloaded and analyzed (Power Macintosh 7200/90; Microsoft Excel 5.0), to yield the mean and standard deviation at each drug concentration.

The subject of data set [4] is P. falciparum. The settings on record: two Hanian strains; compared with chloroquine; cited from earlier work.
Data set [5] relates to SK-MEL-28. Put plainly: NCI 60 cell line screen (SRB), Melanoma. It is filed as cell-based. The settings on record: for Log10TGI: PG=0.
The conditions of data set [6]: cited from earlier work.
Data set [7] relates to P388 leukemia. As to conditions: NCI Report on NSC 369397; cited from earlier work.
Data set [8] concerns P. berghei. As to conditions: P. berghei-infected mice; parasitemia 90 percent suppressed; cited from earlier work.

For `C[C@@H]1CC[C@H]2[C@@H](C)C(=O)O[C@@H]3O[C@]4(C)CC[C@@H]1[C@]32OO4` [Artemisinin, artemisinin], the clinical outcome in data set [1] was “clinical cure of all patients”. Moreover, in data set [2], the “anticancer activity in words” value is “very little anticancer activity”. For the same molecule, in data set [3], the pIC50 is 8.00. For the same molecule, in data set [4], the potency in words result is on record as “comparable to that of chloroquine”. The Log10TGI in data set [5] is above −4.00 log10M. The Log10GI50 is above −4.00 log10M in data set [5] (PG=+50) and above −4.00 log10M in data set [5] (Table IV (LC50, PG=−50)). The “solubility in water in words” value in data set [6] is reported as “insolubility in water”. The activity in words entry in data set [7] is “inactive”. In addition, the SD90 in data set [8] is 6.20 mg/kg.
`CC1=C(C=Cc2cccc(C=CC3=C(C)C4CCC(C)C5CCC6(C)OOC45C(O3)O6)c2)OC2OC3(C)CCC4C(C)CCC1C24OO3` (stereo not shown) [VII-f] yielded a Log10TGI in data set [5] above −4.00 log10M. The Log10GI50 is −4.00 log10M in data set [5] (PG=+50) and above −4.00 log10M in data set [5] (Table IV (LC50, PG=−50)).

By pIC50 is commonly meant the IC50 on a negative log10 scale, so that one unit is a factor of ten.
